Laboratory results: US11654169B2, “Methods for protecting skin and/or promoting wound healing” (SINPHAR PHARMACEUTICAL CO., LTD., priority 2016, dated 2023)

Assays:
Type in all cases: cell-based
[1] = tested on: normal primary human skin fibroblastic cells; assay: Intracellular content of collagen in fibroblasts (Western blot and ELISA), relative to control; details: 48 hours; for relative intracellular content of collagen: control group = 100%; for intracellular contents of collagen as compared to the control group (in words): treated cells vs control group
Method: (§1) The normal primary human skin fibroblastic cells (purchased from ATCC) were cultivated in a Fibroblast Growth Medium. The cells thus provided were used in the following experiments. […]
(§2) The normal primary human skin fibroblastic cells provided by [Preparation Example C] were divided into 37 groups and were respectively cultivated with the following medium for 48 hours: • 1. Group 1: a Fibroblast Growth Medium • 2. Group 2-1 to 2-3: Fibroblast Growth Media containing the pachymic acid (PA) provided by [Preparation Example B] at a concentration of 0.01, 0.1 and 1 μM, respectively; • 3. Group 3-1 to 3-3: Fibroblast Growth Media containing the dehydropachymic acid (DPA) provided by [Preparation Example B] at a concentration of 0.01, 0.1 and 1 μM, respectively; • 4. Group 4-1 to 4-3: Fibroblast Growth Media containing the tumulosic acid (TA) provided by [Preparation Example B] at a concentration of 0.01, 0.1 and 1 μM, respectively; • 5. Group 5-1 to 5-3: Fibroblast Growth Media containing the dehydrotumulosic acid (DTA) provided by [Preparation Example B] at a concentration of 0.01, 0.1 and 1 μM, respectively; • 6. Group 6-1 to 6-3: Fibroblast Growth Media containing the polyporenic acid C (PAC) provided by [Preparation Example B] at a concentration of 0.01, 0.1 and 1 μM, respectively; • 7. Group 7-1 to 7-3: Fibroblast Growth Media containing the 3-epi-dehydrotumulosic acid (EDTA) provided by [Preparation Example B] at a concentration of 0.01, 0.1 and 1 μM, respectively; • 8. Group 8-1 to 8-3: Fibroblast Growth Media containing the dehydrotrametenolic acid (DTTA) provided by [Preparation Example B] at a concentration of 0.01, 0.1 and 1 μM, respectively; • 9. Group 9-1 to 9-3: Fibroblast Growth Media containing the trametenolic acid (TTA) provided by [Preparation Example B] at a concentration of 0.01, 0.1 and 1 μM, respectively; • 10. Group 10-1 to 10-3: Fibroblast Growth Media containing the poricoic acid A (PAA) provided by [Preparation Example B] at a concentration of 0.01, 0.1 and 1 μM, respectively; • 11. Group 11-1 to 11-3: Fibroblast Growth Media containing the dehydroeburicoic acid (DEA) provided by [Preparation Example B] at a concentration of 0.01, 0.1 and 1 μM, respectively; • 12. Group 12-1 to 12-3: Fibroblast Growth Media containing the poricoic acid B (PAB) provided by [Preparation Example B] at a concentration of 0.01, 0.1 and 1 μM, respectively; • 13. Group 13-1 to 13-3: Fibroblast Growth Media containing the eburicoic acid (EA) provided by [Preparation Example B] at a concentration of 0.01, 0.1 and 1 μM, respectively.
Thereafter, the cell medium of each group was collected and concentrated. Then, the intracellular content of collagen was measured and analyzed by Western blot and enzyme-linked immunosorbent assay (ELISA).

[2] = tested on: normal primary human skin fibroblastic cells; assay: Content of collagen in cell medium (extracellular collagen) of fibroblasts (Western blot and ELISA), relative to control; details: 48 hours; for relative content of collagen in the medium (extracellular content of collagen): control group = 100%; for extracellular contents of collagen (collagen in cell medium) as compared to the control group (in words): treated cells vs control group
Method: The normal primary human skin fibroblastic cells (purchased from ATCC) were cultivated in a Fibroblast Growth Medium. The cells thus provided were used in the following experiments.
The normal primary human skin fibroblastic cells provided by [Preparation Example C] were divided into 4 groups and were respectively cultivated with the following medium for 48 hours: • 1. Group I: a Fibroblast Growth Medium; • 2.
(§3) Thereafter, the cell medium of each group was collected and concentrated. Then, the intracellular content of collagen, the content of collagen in cell medium (i.e., extracellular content of collagen) and the content of hyaluronic acid in cell medium were measured and analyzed by Western blot and enzyme-linked immunosorbent assay (ELISA).
as §2
The content of collagen in the medium of each group (i.e., extracellular content of collagen) was provided.

[3] = tested on: normal primary human skin fibroblastic cells; assay: Content of hyaluronic acid in cell medium of fibroblasts (Western blot and ELISA), relative to control; details: 48 hours; for relative content of hyaluronic acid in the medium (extracellular content of hyaluronic acid): control group = 100%; for contents of hyaluronic acid as compared to the control group (in words) / contents of hyaluronic acid, ingredients singled out as stronger (in words): treated cells vs control group; for contents of hyaluronic acid, ingredients singled out as stronger (in words): compared with the other active ingredients
Method: as §1, §3, §2
The content of hyaluronic acid in the medium of each group (i.e., extracellular content of hyaluronic acid) was provided.

SMILES | relative intracellular content of collagen ([1]; 0.01 μM) | relative intracellular content of collagen ([1]; 0.1 μM) | relative intracellular content of collagen ([1]; 1 μM) | relative content of collagen in the medium (extracellular content of collagen) ([2]; 0.01 μM) | relative content of collagen in the medium (extracellular content of collagen) ([2]; 0.1 μM) | relative content of collagen in the medium (extracellular content of collagen) ([2]; 1 μM) | extracellular contents of collagen (collagen in cell medium) as compared to the control group (in words) [2] | relative content of hyaluronic acid in the medium (extracellular content of hyaluronic acid) ([3]; 0.01 μM) | relative content of hyaluronic acid in the medium (extracellular content of hyaluronic acid) ([3]; 0.1 μM) | relative content of hyaluronic acid in the medium (extracellular content of hyaluronic acid) ([3]; 1 μM) | contents of hyaluronic acid as compared to the control group (in words) [3] | contents of hyaluronic acid, ingredients singled out as stronger (in words) [3] | intracellular contents of collagen as compared to the control group (in words) [1]
C=C(CC[C@@H](C(=O)O)[C@H]1[C@H](O)C[C@@]2(C)C3=CC[C@H]4C(C)(C)[C@H](O)CC[C@]4(C)C3=CC[C@]12C)C(C)C [3-epi-dehydrotumulosic acid (EDTA), 3-epi-dehydrotumulosic acid] | 87% | 100% | 80% | 98% | 104% | 111% | significantly enhanced | 105% | 122% | 140% | significantly enhanced | enhanced more significantly | 
C=C(CC[C@@H](C(=O)O)[C@H]1CC[C@@]2(C)C3=CC[C@H]4C(C)(C)[C@@H](O)CC[C@]4(C)C3=CC[C@]12C)C(C)C [Dehydroeburicoic acid (DEA), dehydroeburicoic acid] | 94% | 80% | 77% | 143% | 148% | 185% | significantly enhanced | 115% | 118% | 128% | significantly enhanced |  | 
C=C(CCC(C(=O)O)[C@H]1[C@H](O)C[C@@]2(C)C3=CC[C@H]4C(C)(C)[C@@H](OC(C)=O)CC[C@]4(C)C3=CC[C@]12C)C(C)C (some centres unmarked) [Dehydropachymic acid (DPA), dehydropachymic acid] | 154% | 188% | 122% | 124% | 122% | 116% | significantly enhanced | 111% | 131% | 152% | significantly enhanced | enhanced more significantly | significantly enhanced
CC(C)=CCC[C@@H](C(=O)O)[C@H]1CC[C@@]2(C)C3=CC[C@H]4C(C)(C)[C@@H](O)CC[C@]4(C)C3=CC[C@]12C [Dehydrotrametenolic acid (DTTA), dehydrotrametenolic acid] | 190% | 174% | 118% | 117% | 158% | 131% | significantly enhanced | 99% | 87% | 108% |  |  | significantly enhanced
C=C(CC[C@@H](C(=O)O)[C@H]1[C@H](O)C[C@@]2(C)C3=CC[C@H]4C(C)(C)[C@@H](O)CC[C@]4(C)C3=CC[C@]12C)C(C)C [Dehydrotumulosic acid (DTA), dehydrotumulosic acid] | 159% | 156% | 127% | 122% | 105% | 139% | significantly enhanced | 112% | 134% | 168% | significantly enhanced | enhanced more significantly | significantly enhanced
C=C(CC[C@@H](C(=O)O)[C@H]1CC[C@@]2(C)C3=C(CC[C@]12C)[C@@]1(C)CC[C@H](O)C(C)(C)[C@@H]1CC3)C(C)C [Eburicoic acid (EA), eburicoic acid] | 102% | 97% | 95% | 108% | 106% | 88% | significantly enhanced | 94% | 107% | 120% | significantly enhanced |  | 
C=C(CC[C@@H](C(=O)O)[C@H]1[C@H](O)C[C@@]2(C)C3=C(CC[C@]12C)[C@@]1(C)CC[C@H](OC(C)=O)C(C)(C)[C@@H]1CC3)C(C)C [Pachymic acid (PA), pachymic acid] | 172% | 235% | 211% | 117% | 116% | 106% |  | 98% | 132% | 140% |  |  | 
C=C(CC[C@@H](C(=O)O)[C@H]1[C@H](O)C[C@@]2(C)C3=CC[C@H]4C(C)(C)C(=O)CC[C@]4(C)C3=CC[C@]12C)C(C)C [Polyporenic acid C (PAC), polyporenic acid C] | 162% | 182% | 200% | 134% | 162% | 153% | significantly enhanced | 93% | 113% | 98% | significantly enhanced |  | significantly enhanced
